From ChEMBL document CHEMBL4177681, “Protective effect of casuarinin against glutamate-induced apoptosis in HT22 cells through inhibition of oxidative stress-mediated MAPK phosphorylation” (Bioorg Med Chem Lett, 2017)
The source made the active and inactive calls. The calls are words filed in the database; no cut-off is given here.

Columns and labels:
HT-22 [1] = experiment: Neuroprotective activity against glutamate-induced cell death in mouse HT22 cells assessed as increase in cell viability […] after 24 hrs by MTT assay; type: functional, cell-based
HT-22 [2] = experiment: Neuroprotective activity against glutamate-induced apoptosis in mouse HT22 cells assessed as apoptotic cells at 50 uM after 10 to 12 hrs by Annexin V-alexa 488/propidium iodide staining based flow cytometry (reference value: 57%); type: functional
HT-22 [3] = experiment: Neuroprotective activity against glutamate-induced cell death in mouse HT22 cells assessed as reduction in apoptotic cells at 50 uM after 10 to 12 hrs by Annexin V-alexa 488/propidium iodide staining based flow cytometry; type: functional

CC(=O)N[C@@H](CS)C(=O)O [ACETYLCYSTEINE]
Activity (HT-22 [1]): Active | Activity (HT-22 [2]): 17% | Activity (HT-22 [3]): Active
